# PMC8017969, “Redox regulation of NADP-malate dehydrogenase is vital for land plants under fluctuating light environment” (Proceedings of the National Academy of Sciences of the …, 2021)
# Experiments:
# [1] = molecular target: T1, MDHΔC (Arabidopsis thaliana, UniProt Q8H1E2); assay: NADPH oxidation monitored at […] nm, Michaelis-Menten fit; type: biochemical; conditions: reduced enzyme (pretreated with Trx-f1 and DTT); 0-200 μM oxaloacetate, 100 μM NADPH, 0.01 μM MDH, pH 7.5, 50 mM NaCl, 25 °C
# T1 construct: gene At5g58330; mature enzyme from Ser54 plus start Met, C-terminal extension from Cys430 to C terminus deleted, pET-23c, expressed in E. coli
# T1 sequence (Q8H1E2 54-429): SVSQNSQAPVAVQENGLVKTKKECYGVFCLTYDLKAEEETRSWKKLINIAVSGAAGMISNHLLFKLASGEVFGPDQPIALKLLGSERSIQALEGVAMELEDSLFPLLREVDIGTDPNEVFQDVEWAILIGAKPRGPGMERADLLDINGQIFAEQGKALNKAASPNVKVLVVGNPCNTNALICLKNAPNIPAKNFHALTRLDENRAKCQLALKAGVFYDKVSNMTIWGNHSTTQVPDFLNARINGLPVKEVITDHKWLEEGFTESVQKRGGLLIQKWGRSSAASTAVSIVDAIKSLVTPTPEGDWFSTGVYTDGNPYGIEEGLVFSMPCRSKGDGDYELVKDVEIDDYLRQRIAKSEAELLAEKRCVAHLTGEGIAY
# [2] = molecular target: T2, MDHWT (chloroplast NADP-malate dehydrogenase) (Arabidopsis thaliana, UniProt Q8H1E2); assay: as above; type: biochemical; conditions: reduced enzyme (pretreated with Trx-f1 and DTT); 0-200 μM oxaloacetate, 100 μM NADPH, 0.01 μM MDH, pH 7.5, 50 mM NaCl, 25 °C
# T2 construct: gene At5g58330; mature enzyme from Ser54 plus start Met (transit peptide removed), pET-23c, expressed in E. coli, purified with added size exclusion step
# T2 sequence (Q8H1E2 54-443): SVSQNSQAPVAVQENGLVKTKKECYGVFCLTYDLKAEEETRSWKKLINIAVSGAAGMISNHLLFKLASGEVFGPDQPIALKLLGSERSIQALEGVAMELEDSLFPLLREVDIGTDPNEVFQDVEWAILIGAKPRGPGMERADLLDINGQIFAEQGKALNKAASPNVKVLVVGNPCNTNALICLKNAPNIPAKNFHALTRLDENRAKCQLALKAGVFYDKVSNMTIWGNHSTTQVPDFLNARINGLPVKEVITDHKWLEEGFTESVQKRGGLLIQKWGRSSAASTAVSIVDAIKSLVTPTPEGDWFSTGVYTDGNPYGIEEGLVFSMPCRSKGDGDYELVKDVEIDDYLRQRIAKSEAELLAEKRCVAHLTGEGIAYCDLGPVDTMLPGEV
structure (smiles),measurement,setting,value
O=C(O)CC(=O)C(=O)O [oxaloacetate],"NADPH oxidation monitored at 340 nm, Michaelis-Menten fit",[1],Activities of recombinant MDHWT and MDHΔC
same,"NADPH oxidation monitored at 340 nm, Michaelis-Menten fit",[2],Activities of recombinant MDHWT and MDHΔC
